Earlier results on two compounds are cited in US20050272698A1, “Liquid stable composition of oxazaphosphorine with mesna” (priority 2002, published 2005).

As to `O=P1(NCCCl)OCCCN1CCCl` (centres unmarked) [Ifosfamide, 3-(2-chloroethyl)-2-[(2-chloroethyl)amino]tetrahydro-2H-1,3,2-oxazaphosphorin-2-oxide], the solubility in water result is on record as “freely soluble in water”.

For the compound `O=S(=O)([O-])CCS.[Na+]` [Mesna, sodium-2-mercaptoethanesulphonate], the solubility in water result was “highly water soluble”.
